In patent US6603046B1, “Bis-aromatic a,β-unsaturated ketones” (Lica Pharmaceuticals A/S, priority 1992, dated 2003):
Converted amounts (≈) assume the structure as drawn. “And” between values parts separate entries of the source, which are not always exact repeats. Equal entries are not always repeated. Marks after values point to notes of the source that are not given here.

What was measured:
Eimeria tenella = assay: Anticoccidial activity in chickens infected with Eimeria tenella (Example 28); format: in vivo
Streptococcus pneumonia = assay: MIC, macrodilution (Example 17); format: cell-based; conditions: Streptococcus pneumoniae; 1 strain
P. yoelii strain YM = P. yoelii strain YM infection in mice, parasitemia and mortality (Example 16); format: in vivo, BALB/c mice; conditions: for % parasitemia, Mean: orally 100 mg/kg/dose 3 and 24 h after infection
[1] = amount of feed consumed per kg chicken weight gain, doses as Table 28.1
[2] = in feed: salinomycin 70 ppm, 2,5 m4′ac and 2,4 mc 30 mg/kg/day, licochalcone A 10 mg/kg/day
[3] = D + 2, 10 mg per kg twice daily days +1 to +4
[4] = D + 3, 10 mg per kg twice daily days +1 to +4
[5] = D + 4, 10 mg per kg twice daily days +1 to +4
[6] = D + 5, 10 mg per kg twice daily days +1 to +4
[7] = D + 6, 10 mg per kg twice daily days +1 to +4
[8] = D + 7, 10 mg per kg twice daily days +1 to +4
[9] = D + 8, 10 mg per kg twice daily days +1 to +4
[10] = D + 9, 10 mg per kg twice daily days +1 to +4

C=CC(C)(C)c1cc(/C=C/C(=O)c2ccc(O)cc2)c(OC)cc1O [Licochalcone A, licochalcone A]
percentages of chickens showing pathological signs versus infected control group (Eimeria tenella; 10 mg/kg/day in feed): much lower | feed consumption after 7 days of treatment (Eimeria tenella; [1]): 1.26 | feed consumption after 14 days of treatment (Eimeria tenella; [1]): 1.31 | Weight gain in 7 days after initiation of treatment (Eimeria tenella; [2]): 414 grams per chicken | Weight gain in 14 days after initiation of treatment (Eimeria tenella; [2]): 864^b grams per chicken | Difference in weight gain to group 5 (control infected) after treatment for 14 days (Eimeria tenella; normal variation ±2%): ^bDifference between groups 4 (licochalcone A) and 5 (control infected) after treatment for 14 days is 7.6%. | Mortality (Eimeria tenella; number of chickens, groups of 35, licochalcone A 20): 0 | MIC (Streptococcus pneumonia): 4 mg/L (≈ 11.8 µM) | Parasitemia, mean (P. yoelii strain YM; [3]): 0.1% | Parasitemia, single mice (P. yoelii strain YM; [3]): 0.1% and 0.01% | Parasitemia, mean (P. yoelii strain YM; [4]): 0.2% | Parasitemia, single mice (P. yoelii strain YM; [4]): 0.00% and 0.5% and 0.01% | Parasitemia, mean (P. yoelii strain YM; [5]): 0.4% | Parasitemia, single mice (P. yoelii strain YM; [5]): 0.00% and 1.2% | Parasitemia, single mice (P. yoelii strain YM; D + 4, 10 mg/kg/day in 2 injections, days +1 to +6, 10 mg/kg/day): 1.5% and 4.0% | Parasitemia, single mice (P. yoelii strain YM; D + 4, 20 mg/kg/day in 2 injections, days +1 to +6, 20 mg/kg/day): 0.01% and 0.0% | Parasitemia, single mice (P. yoelii strain YM; D + 4, 40 mg/kg/day in 2 injections, days +1 to +6, 40 mg/kg/day): 0.1% and 0.5% | % parasitemia (mean ± SEM) (P. yoelii strain YM; D + 4, i.p. 5 mg/kg/day twice daily, 3 h after infection and D + 1 to D + 3): 1.6 ± 0.6% | % parasitemia (mean ± SEM) (P. yoelii strain YM; D + 4, i.p. 10 mg/kg four times daily D + 4 to D + 7): 14.2 ± 3.8% | % parasitemia (mean ± SEM) (P. yoelii strain YM; D + 4, i.p. 10 mg/kg twice daily D-1, D0): 1.2 ± 1.1% | % parasitemia (mean ± SEM) (P. yoelii strain YM; D + 4, i.p. 10 mg/kg/day twice daily, 3 h after infection and D + 1 to D + 3): 1.1 ± 1.0% | % parasitemia (mean ± SEM) (P. yoelii strain YM; D + 4, i.p. 15 mg/kg/day twice daily, 3 h after infection and D + 1 to D + 3): 2.0 ± 2.0% | % parasitemia, Mean (P. yoelii strain YM; D + 4): 1.0% | Parasitemia, mean (P. yoelii strain YM; [6]): 0.7% | Parasitemia, single mice (P. yoelii strain YM; [6]): 0.1% and 1.5% and 0.00% | Parasitemia, single mice (P. yoelii strain YM; D + 5, 10 mg/kg/day in 2 injections, days +1 to +6, 10 mg/kg/day): 1.5% and 3.0% | Parasitemia, single mice (P. yoelii strain YM; D + 5, 20 mg/kg/day in 2 injections, days +1 to +6): 0.0% | Parasitemia, single mice (P. yoelii strain YM; D + 5, 40 mg/kg/day in 2 injections, days +1 to +6, 40 mg/kg/day): 0.5% and 1.0% | Parasitemia, mean (P. yoelii strain YM; [7]): 2.2% | Parasitemia, single mice (P. yoelii strain YM; [7]): 1.0% and 4.0% and 1.5% | Parasitemia, single mice (P. yoelii strain YM; D + 6, 10 mg/kg/day in 2 injections, days +1 to +6, 10 mg/kg/day): 2.0% and 2.5% | % parasitemia (mean ± SEM) (P. yoelii strain YM; D + 6, 10 mg/kg/day twice daily, 3 h after infection, D + 1 to D + 5): 0.1 ± 0.1% | % parasitemia (mean ± SEM) (P. yoelii strain YM; D + 6, 15 mg/kg/day twice daily, 3 h after infection, D + 1 to D + 5): 0% | Parasitemia, single mice (P. yoelii strain YM; D + 6, 20 mg/kg/day in 2 injections, days +1 to +6): 0.0% | Parasitemia, single mice (P. yoelii strain YM; D + 6, 40 mg/kg/day in 2 injections, days +1 to +6, 40 mg/kg/day): 1.0% and 1.5% | % parasitemia (mean ± SEM) (P. yoelii strain YM; D + 6, i.p. 5 mg/kg/day twice daily, 3 h after infection and D + 1 to D + 3): 13.8 ± 4.4% | % parasitemia (mean ± SEM) (P. yoelii strain YM; D + 6, i.p. 10 mg/kg four times daily D + 4 to D + 7): 6.6 ± 1.5% | % parasitemia (mean ± SEM) (P. yoelii strain YM; D + 6, i.p. 10 mg/kg twice daily D-1, D0): 9.7 ± 0.7% | % parasitemia (mean ± SEM) (P. yoelii strain YM; D + 6, i.p. 10 mg/kg/day twice daily, 3 h after infection and D + 1 to D + 3): 14.2 ± 4.6% | % parasitemia (mean ± SEM) (P. yoelii strain YM; D + 6, i.p. 15 mg/kg/day twice daily, 3 h after infection and D + 1 to D + 3): 10.4 ± 7.4% | Parasitemia, mean (P. yoelii strain YM; [8]): 3.0% | Parasitemia, single mice (P. yoelii strain YM; [8]): 2.0% and 4.0% and 3.0% | Parasitemia, single mice (P. yoelii strain YM; D + 7, 10 mg/kg/day in 2 injections, days +1 to +6, 10 mg/kg/day): 8.0% and 10.0% | Parasitemia, single mice (P. yoelii strain YM; D + 7, 20 mg/kg/day in 2 injections, days +1 to +6, 20 mg/kg/day): 0.01% and 0.05% | Parasitemia, single mice (P. yoelii strain YM; D + 7, 40 mg/kg/day in 2 injections, days +1 to +6, 40 mg/kg/day): 4.5% and 5.8% | % parasitemia, Mean (P. yoelii strain YM; D + 7): 9.7% | Parasitemia, mean (P. yoelii strain YM; [9]): 6.7% | Parasitemia, single mice (P. yoelii strain YM; [9]): 4.0% and 8.0% | Parasitemia, single mice (P. yoelii strain YM; D + 8, 10 mg/kg/day in 2 injections, days +1 to +6, 10 mg/kg/day): 18.0% and 20.0% | % parasitemia (mean ± SEM) (P. yoelii strain YM; D + 8, 10 mg/kg/day twice daily, 3 h after infection, D + 1 to D + 5): 0.7 ± 0.4% | % parasitemia (mean ± SEM) (P. yoelii strain YM; D + 8, 15 mg/kg/day twice daily, 3 h after infection, D + 1 to D + 5): 0% | Parasitemia, single mice (P. yoelii strain YM; D + 8, 20 mg/kg/day in 2 injections, days +1 to +6, 20 mg/kg/day): 1.0% and 1.5% | Parasitemia, single mice (P. yoelii strain YM; D + 8, 40 mg/kg/day in 2 injections, days +1 to +6, 40 mg/kg/day): 12.0% and 15.0% | % parasitemia (mean ± SEM) (P. yoelii strain YM; D + 8, i.p. 5 mg/kg/day twice daily, 3 h after infection and D + 1 to D + 3): 36.6 ± 5.7% | % parasitemia (mean ± SEM) (P. yoelii strain YM; D + 8, i.p. 10 mg/kg four times daily D + 4 to D + 7): 17 ± 6.2% | % parasitemia (mean ± SEM) (P. yoelii strain YM; D + 8, i.p. 10 mg/kg twice daily D-1, D0): 27.8 ± 16.1% | % parasitemia (mean ± SEM) (P. yoelii strain YM; D + 8, i.p. 10 mg/kg/day twice daily, 3 h after infection and D + 1 to D + 3): 30.2 ± 6.4% | % parasitemia (mean ± SEM) (P. yoelii strain YM; D + 8, i.p. 15 mg/kg/day twice daily, 3 h after infection and D + 1 to D + 3): 22 ± 11.6% | Parasitemia, mean (P. yoelii strain YM; [10]): 23.0% | Parasitemia, single mice (P. yoelii strain YM; [10]): 20.0% and 18.0% and 31.0% | Parasitemia, mean (P. yoelii strain YM; D + 10, 10 mg per kg twice daily days +1 to +4): 25.5% | Parasitemia, single mice (P. yoelii strain YM; D + 10, 10 mg/kg/day in 2 injections, days +1 to +6, 10 mg/kg/day): 39.0% and 42.0% | % parasitemia (mean ± SEM) (P. yoelii strain YM; D + 10, 10 mg/kg/day twice daily, 3 h after infection, D + 1 to D + 5): 6.0 ± 3.8%
